Assay results from the CheMixHub viscosity set.
Several values for one entry are separate records, joined by “and”; a condition that tells them apart may be missing. Equal values may be shown once.

Assay: xn = mol fraction of the nth substance listed

CC(C)CC(C)C + CCCCCCCCCCCC
101 kPa, x1 = 0.5
Conditions	viscosity [mPa·s]
298 K	0.7489
318 K	0.5809

CC(C)c1cc(C(C)C)cc(C(C)C)c1 + CCCCCCCCCCCC
viscosity [mPa·s], 102 kPa
Conditions	x1 = 0.0997	x1 = 0.2002	x1 = 0.3009	x1 = 0.4002	x1 = 0.5003	x1 = 0.6001	x1 = 0.7001	x1 = 0.8002	x1 = 0.8999
293.15 K	1.57	1.67	1.8	1.94	2.14	2.37	2.67	3.05	3.51
303.15 K	1.31	1.39	1.48	1.59	1.73	1.89	2.09	2.35	2.66
313.15 K	1.11	1.17	1.24	1.32	1.42	1.54	1.69	1.86	2.08
323.15 K	0.956	1	1.05	1.12	1.19	1.28	1.39	1.52	1.67

CCOC(=O)CCl + CCCCCCCCCCCC
viscosity [mPa·s], 101.33 kPa
Conditions	x1 = 0.0961	x1 = 0.2041	x1 = 0.3012	x1 = 0.4005	x1 = 0.5029	x1 = 0.6026	x1 = 0.7029	x1 = 0.804	x1 = 0.9017
298.15 K	1.25	1.197	1.159	1.14	1.127	1.116	1.105	1.101	1.099
303.15 K	1.149	1.094	1.062	1.041	1.027	1.029	1.015	0.994	0.985
308.15 K	1.054	1.019	0.979	0.96	0.946	0.94	0.93	0.927	0.929

COC(=O)c1ccccc1 + CCCCCCCCCCCC
101 kPa
Conditions	viscosity [mPa·s]
298.15 K, x2 = 0.082	1.662
298.15 K, x2 = 0.1173	1.604
298.15 K, x2 = 0.144	1.569
298.15 K, x2 = 0.1894	1.521
298.15 K, x2 = 0.2155	1.489
298.15 K, x2 = 0.2495	1.456
298.15 K, x2 = 0.2908	1.424
298.15 K, x2 = 0.3295	1.395
298.15 K, x2 = 0.3708	1.367
298.15 K, x2 = 0.4625	1.325
298.15 K, x2 = 0.5803	1.295
298.15 K, x2 = 0.6336	1.286
298.15 K, x2 = 0.6963	1.278
298.15 K, x2 = 0.7551	1.279
298.15 K, x2 = 0.837	1.291
298.15 K, x2 = 0.9197	1.314
308.15 K, x2 = 0.0354	1.452
308.15 K, x2 = 0.0681	1.412
308.15 K, x2 = 0.0984	1.376
308.15 K, x2 = 0.126	1.347
308.15 K, x2 = 0.1623	1.311
308.15 K, x2 = 0.1958	1.282
308.15 K, x2 = 0.2384	1.248
308.15 K, x2 = 0.2693	1.226
308.15 K, x2 = 0.3062	1.203
308.15 K, x2 = 0.3476	1.182
308.15 K, x2 = 0.3895	1.164
308.15 K, x2 = 0.4361	1.146
308.15 K, x2 = 0.485	1.131
308.15 K, x2 = 0.5382	1.12
308.15 K, x2 = 0.5886	1.112
308.15 K, x2 = 0.65	1.108
308.15 K, x2 = 0.7204	1.107
308.15 K, x2 = 0.7849	1.11
308.15 K, x2 = 0.8845	1.124
318.15 K, x2 = 0.0445	1.219
318.15 K, x2 = 0.0506	1.213
318.15 K, x2 = 0.0779	1.183
318.15 K, x2 = 0.1097	1.152
318.15 K, x2 = 0.1388	1.126
318.15 K, x2 = 0.1737	1.097
318.15 K, x2 = 0.2067	1.072
318.15 K, x2 = 0.2449	1.048
318.15 K, x2 = 0.2814	1.025
318.15 K, x2 = 0.3256	1.001
318.15 K, x2 = 0.3648	0.983
318.15 K, x2 = 0.4153	0.964
318.15 K, x2 = 0.4635	0.95
318.15 K, x2 = 0.5194	0.938
318.15 K, x2 = 0.5726	0.931
318.15 K, x2 = 0.6372	0.926
318.15 K, x2 = 0.7	0.924
318.15 K, x2 = 0.7739	0.929
318.15 K, x2 = 0.8468	0.938

c1ccc2c(c1)CCCC2 + CCCCCCCCCCCC
323.15 K, 100 kPa
Conditions	viscosity
x1 = 0.399	0.965 mPa·s and 0.964 mPa·s
x1 = 0.714	1.06 mPa·s

CC(C)CC(C)C + CCCCCCCCCCCCCCCC
101 kPa, x1 = 0.5
Conditions	viscosity [mPa·s]
298 K	1.314
318 K	0.9631

CC(C)c1cc(C(C)C)cc(C(C)C)c1 + CCCCCCCCCCCCCCCC
viscosity [mPa·s], 102 kPa
Conditions	x1 = 0.1209	x1 = 0.1996	x1 = 0.3001	x1 = 0.3994	x1 = 0.5003	x1 = 0.6004	x1 = 0.6998	x1 = 0.7999	x1 = 0.8993
293.15 K	3.41	3.37	3.35	3.34	3.37	3.43	3.53	3.67	3.86
303.15 K	2.7	2.67	2.64	2.63	2.64	2.66	2.71	2.79	2.9
313.15 K	2.19	2.16	2.13	2.12	2.12	2.13	2.15	2.19	2.26
323.15 K	1.81	1.79	1.76	1.75	1.74	1.74	1.75	1.77	1.81

CC(C)OCCO + CCCCCCCCCCO
viscosity [mPa·s], 101 kPa
Conditions	298.15 K	303.15 K	308.15 K
x1 = 0.0501	11.21	9.204	7.728
x1 = 0.1066	10.53	8.634	7.235
x1 = 0.1507	10.01	8.194	6.853
x1 = 0.253	8.94	7.311	6.115
x1 = 0.3119	8.302	6.783	5.668
x1 = 0.3516	7.856	6.41	5.352
x1 = 0.4159	7.17	5.836	4.871
x1 = 0.5018	6.315	5.145	4.3
x1 = 0.6016	5.388	4.398	3.692
x1 = 0.7014	4.518	3.715	3.149
x1 = 0.8012	3.69	2.991	2.564
x1 = 0.854	3.267	2.661	2.308
x1 = 0.9003	2.873	2.385	2.097
x1 = 0.9507	2.516	2.166	1.948

CCCCOCCO + CCCCCCCCCCO
101 kPa
Conditions	viscosity [mPa·s]
303.15 K, x1 = 0.1024	8.155
308.15 K, x1 = 0.7009	3.195

CC(C)OCCO + CCCCCCCCO
viscosity [mPa·s], 101 kPa
Conditions	298.15 K	303.15 K	308.15 K
x1 = 0.0517	7.288	6.066	5.217
x1 = 0.1016	6.902	5.729	4.938
x1 = 0.1531	6.517	5.401	4.671
x1 = 0.2013	6.178	5.106	4.415
x1 = 0.2524	5.832	4.817	4.162
x1 = 0.3033	5.49	4.523	3.906
x1 = 0.4	4.893	4.027	3.482
x1 = 0.5012	4.314	3.556	3.086
x1 = 0.618	3.706	3.07	2.691
x1 = 0.7017	3.325	2.776	2.459
x1 = 0.8102	2.849	2.418	2.155
x1 = 0.8492	2.721	2.322	2.091
x1 = 0.9046	2.477	2.157	1.986
x1 = 0.9472	2.36	2.064	1.911

CCCCCCCCN(CCCCCCCC)CCCCCCCC + CCCCCCCCO
Conditions	viscosity [mPa·s]
298 K, 101.3 kPa, x1 = 0.00811	7.341

CCCCOCCO + CCCCCCCCO
viscosity [mPa·s], 101 kPa
Conditions	298.15 K	303.15 K	308.15 K
x1 = 0.6004	3.885	–	2.965
x1 = 0.8027	–	2.825	2.545

c1ccc2c(c1)CCCC2 + CCCCCCCCO
viscosity [mPa·s], 100 kPa
Conditions	x1 = 0.0993	x1 = 0.1995	x1 = 0.2994	x1 = 0.3997	x1 = 0.4996	x1 = 0.5996	x1 = 0.6996	x1 = 0.7994	x1 = 0.8994
293.15 K	7.58	6.37	5.34	4.49	3.8	3.25	2.83	2.53	2.31
298.15 K	6.37	5.38	4.55	3.86	3.3	2.85	2.51	2.25	2.09
303.15 K	5.39	4.59	3.92	3.35	2.89	2.52	2.22	2.01	1.88
308.15 K	4.61	3.95	3.39	2.92	2.54	2.23	1.99	1.81	1.7
313.15 K	3.95	3.42	2.97	2.58	2.26	2	1.79	1.64	1.55
318.15 K	3.42	2.99	2.61	2.29	2.02	1.8	1.63	1.51	1.43
323.15 K	2.96	2.61	2.3	2.03	1.81	1.62	1.48	1.37	1.32

CC(C)OCCO + CCCCCCO
viscosity [mPa·s], 101 kPa
Conditions	298.15 K	303.15 K	308.15 K
x1 = 0.0533	4.409	3.75	3.294
x1 = 0.1018	4.192	3.555	3.096
x1 = 0.1512	3.993	3.38	2.917
x1 = 0.2013	3.789	3.2	2.752
x1 = 0.254	3.6	3.033	2.601
x1 = 0.3074	3.4	2.857	2.449
x1 = 0.4034	3.103	2.596	2.216
x1 = 0.5044	2.834	2.374	2.028
x1 = 0.6042	2.631	2.216	1.894
x1 = 0.7118	2.449	2.079	1.79
x1 = 0.8046	2.312	1.985	1.758
x1 = 0.8418	2.305	1.991	1.777
x1 = 0.9001	2.262	1.975	1.763
x1 = 0.953	2.226	1.952	1.771

CCCCCCCCN(CCCCCCCC)CCCCCCCC + CCCCCCO
Conditions	viscosity [mPa·s]
298 K, 101.3 kPa, x1 = 0.00638	4.722

CC(C)OCCO + CCCCCO
298.15 K, 101.33 kPa
Conditions	viscosity [mPa·s]
x1 = 0.0159	3.466
x1 = 0.0312	3.405
x1 = 0.0461	3.354
x1 = 0.0653	3.292
x1 = 0.0867	3.234
x1 = 0.1097	3.16
x1 = 0.137	3.099
x1 = 0.1627	3.029
x1 = 0.1931	2.952
x1 = 0.2267	2.881
x1 = 0.2585	2.819
x1 = 0.2966	2.748
x1 = 0.3417	2.677
x1 = 0.3843	2.61
x1 = 0.4446	2.526
x1 = 0.4848	2.473
x1 = 0.4956	2.461
x1 = 0.5246	2.432
x1 = 0.5561	2.397
x1 = 0.6012	2.357
x1 = 0.6643	2.297
x1 = 0.7168	2.261
x1 = 0.7741	2.218
x1 = 0.8198	2.191
x1 = 0.8573	2.167
x1 = 0.8964	2.142
x1 = 0.9259	2.133
x1 = 0.9558	2.116
x1 = 0.9775	2.11

O=C(Cc1ccccc1)Cc1ccccc1 + CCCCCOC(C)=O
298.15 K, 101 kPa
Conditions	viscosity [mPa·s]
x1 = 0.0269	0.8322
x1 = 0.0305	0.8358

Oc1cccc(Cl)c1 + CCCCCOC(C)=O
Conditions	viscosity [mPa·s]
298.15 K, 101 kPa, x1 = 0.5	1.244

CCCCCC(C)C + CCCCO
viscosity [mPa·s], 100 kPa
Conditions	x2 = 0.1005	x2 = 0.2014	x2 = 0.3002	x2 = 0.4	x2 = 0.5004	x2 = 0.6006	x2 = 0.7	x2 = 0.8001	x2 = 0.9
293.15 K	0.528	0.576	0.634	0.741	0.891	1.1	1.37	1.74	2.24
303.15 K	0.467	0.508	0.549	0.635	0.748	0.902	1.11	1.38	1.75
313.15 K	0.413	0.447	0.476	0.548	0.633	0.751	0.906	1.11	1.39
323.15 K	0.364	0.391	0.422	0.473	0.539	0.633	0.751	0.907	1.12
